# Assay results published in ChEMBL document CHEMBL3616435, “Cytotoxic cardenolides from the latex of Calotropis procera” (Bioorg Med Chem Lett, 2015).
# Tested on: Mycobacterium tuberculosis
# Experiment: Antimicrobial activity against Mycobacterium bovis BCG after 3 days by broth microdilution method
# Format: functional
# Conditions: variant bovis BCG, 72 h
row,Compound,MIC
1,C[C@@H]1C[C@@H](O)[C@]2(O)O[C@@H]3C[C@@]4(C=O)[C@@H](CC[C@@H]5[C@@H]4CC[C@]4(C)[C@@H](C6=CC(=O)OC6)C[C@@H](O)[C@]54O)C[C@H]3O[C@@H]2C1,> 80 µg/mL
2,CO[C@@H]1C[C@@H](C)C[C@H]2O[C@@H]3C[C@@H]4CC[C@@H]5[C@H](CC[C@]6(C)[C@@H](C7=CC(=O)OC7)C[C@@H](O)[C@]56O)[C@@]4(C=O)C[C@H]3O[C@@]12O,> 80 µg/mL
3,C[C@@H]1C[C@@H](O)[C@]2(O)O[C@@H]3C[C@@]4(C)[C@@H](CC[C@@H]5[C@@H]4CC[C@]4(C)[C@@H](C6=CC(=O)OC6)C[C@@H](O)[C@]54O)C[C@H]3O[C@@H]2C1,> 80 µg/mL
4,C[C@H]1C[C@H]2O[C@@H]3C[C@@H]4CC[C@@H]5[C@H](CC[C@]6(C)[C@@H](C7=CC(=O)OC7)CC[C@]56O)[C@@]4(C=O)C[C@H]3O[C@@]2(O)[C@H](O)[C@@H]1O,> 80 µg/mL
5,C[C@H]1C[C@H]2O[C@@H]3C[C@@H]4CC[C@@H]5[C@H](CC[C@]6(C)[C@@H](C7=CC(=O)OC7)C[C@@H](O)[C@]56O)[C@@]4(C=O)C[C@H]3O[C@@]2(O)[C@@]2(C1)N=CCS2,> 80 µg/mL
6,C[C@]12[C@H](O)C[C@H]3[C@@H](CC[C@H]4C[C@H](O)CC[C@@]43CO)[C@@]1(O)CC[C@@H]2C1=CC(=O)OC1,> 80 µg/mL
7,C[C@]12[C@H](O)C[C@H]3[C@@H](CC[C@H]4C[C@H](O)CC[C@@]43C=O)[C@@]1(O)CC[C@@H]2C1=CC(=O)OC1,> 80 µg/mL
8,C[C@]12C[C@@H](O)[C@H](O)C[C@@H]1CC[C@@H]1[C@@H]2CC[C@]2(C)[C@@H](C3=CC(=O)OC3)C[C@@H](O)[C@]12O,> 80 µg/mL
9,C[C@]12[C@H](O)C[C@H]3[C@@H](CC[C@H]4C[C@@H](O)CC[C@@]43CO)[C@@]1(O)CC[C@@H]2C1=CC(=O)OC1,> 80 µg/mL
10,C[C@@H]1C[C@@H](O)[C@]2(O)O[C@@H]3C[C@@]4(C=O)[C@@H](CC[C@@H]5[C@@H]4CC[C@]4(C)[C@@H](C6=CC(=O)OC6)CC[C@]54O)C[C@H]3O[C@@H]2O1 [CALACTIN],> 80 µg/mL
11,C[C@@H]1C[C@@]2(N=CCS2)[C@]2(O)O[C@@H]3C[C@@]4(C=O)[C@@H](CC[C@@H]5[C@@H]4CC[C@]4(C)[C@@H](C6=CC(=O)OC6)CC[C@]54O)C[C@H]3O[C@@H]2O1 [USCHARIN],> 80 µg/mL
